From PMC4226186, “Biobleaching of Industrial Important Dyes with Peroxidase Partially Purified from Garlic” (The Scientific World Journal, 2014)

Test system: T1, garlic peroxidase (Allium sativum peroxidase)
T1 construct: gene class III plant peroxidase; native, partially purified from peeled garlic (ammonium sulphate, dialysis, Sephadex G-200)
Experiment: absorbance change on o-dianisidine oxidation; Lineweaver-Burk plot
Type: biochemical
Details: co-substrate H2O2; 0.05 M sodium phosphate pH 6.0; 20-120 mM o-dianisidine; partially purified enzyme

`COc1cc(-c2ccc(N)c(OC)c2)ccc1N` [o-dianisidine] showed a Km of 25 mM.
